Structures are written as SMILES. Activity calls are given as the source filed them.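 How the source made its calls: active means IC50 at or below a set limit; inactive means the rest.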

In the experiment the test system is HL-1 cardiomyocytes, 2-deoxyglucose injury, ATPLite luminescence, 2 h. Briefly: protection of HL-1 cardiomyocytes from 2-deoxyglucose injury, dose response, cell-based, ATPLite luminescence (AID 602217).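 Further: cells kept in glucose-free DMEM during the 2-deoxyglucose injury; potency of protection where actives preserve ATP signal against 2-deoxyglucose stress.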
For the compound `CC(=O)Nc1ccc(S(=O)(=O)N(Cc2cccnc2)Cc2cc3ccccc3[nH]c2=O)cc1`, the IC50 is 30.8 µM (inactive).
With `COc1ccc(CCNc2nc(-c3cccnc3)nc3ccccc23)cc1OC`, the IC50 is 55 µM (inactive).
On to `O=C(Nc1ccccc1)c1nc[nH]c1C(=O)NCCNC(=O)c1[nH]cnc1C(=O)Nc1ccccc1`, for which the IC50 was 4.82 µM.
For `C=CCOC(=O)C1=C[C@H](c2cn(C(C)=O)c3ccccc23)C[C@H](OCc2ccc(CO)cc2)O1` the value was > 79 µM (inactive); for `COc1cccc(/C=N/NC(=O)c2oc3nc(-c4ccccc4)cc(-c4ccco4)c3c2N)c1`, 4.97 µM.
The result for `COc1cc(/C=C/c2nnc3c4ccccc4ncn23)cc(OC)c1OC` reads 31.9 µM (inactive).
Consider `COc1ccccc1N1CCN(C(=O)c2ccc3nc(-c4ccco4)c(-c4ccco4)nc3c2)CC1`, for which the IC50 was 16.4 µM.
The result for `c1ccc(-c2nc(-n3ccnc3)nc(-n3ccnc3)n2)cc1` reads 38 µM (inactive); that for `Cc1cc(C)c2c(N)c(C(=O)N/N=C/c3cccnc3)sc2n1`, > 79 µM (inactive); that for `NC(=O)c1cc2ccccc2o/c1=N\NC(=O)c1ccc(F)cc1`, > 79 µM (inactive).
With `COc1cc(C(=O)N/N=C/c2sc(N3CCOCC3)nc2-c2ccccc2)cc(OC)c1OC`, the IC50 is 22.6 µM (inactive).
As to `COc1ccc(-c2ccc3c(c2)S(=O)(=O)c2cccc(C(=O)N4CCN(c5c(Cl)cncc5Cl)CC4)c2C3=O)cc1OC`, the IC50 is 13.7 µM.
For `CCOc1ccc(C(C(=O)NC2CCCC2)N(C(=O)c2snc(C(N)=O)c2N)c2cccc(O)c2)cc1` (stereo unspecified) the value was 13.1 µM.
For `COc1cc(-c2cc(C(=O)Nc3ccccc3N3CCOCC3)c3ccccc3n2)cc(OC)c1OC` the value was 13.1 µM; for `CCN1C(=O)/C(=C/c2nc3ccccc3c(=O)[nH]2)c2ccccc21`, > 79 µM (inactive).
Turning to `O=C(Nc1ccccc1)c1nc[nH]c1C(=O)NCCCCCCNC(=O)c1[nH]cnc1C(=O)Nc1ccccc1`, the IC50 is > 79 µM (inactive).
For `COc1ccc(-c2csc(NC(=O)c3ccc(OCC(=O)N4CCOCC4)c(OC)c3)n2)cc1OC` the value was > 79 µM (inactive); for `CN(C)S(=O)(=O)c1ccc2[nH]cc(/C=C/c3nc4ccccc4c(=O)n3-c3ccccc3)c2c1`, 5 µM; for `COc1ccc(-c2nn(-c3ccccc3)cc2C(=O)Nc2nccs2)cc1`, 53.5 µM (inactive).
For `COc1cc(C(=O)NCC(=O)N/N=C/c2ccc(-c3cccc([N+](=O)[O-])c3)o2)cc(OC)c1OC` the value was > 79 µM (inactive); for `COc1ccc(-n2c(/C=C/c3ccc(O)c(OC)c3)nc3ccccc3c2=O)cc1`, 21.3 µM (inactive); for `COc1cc2[nH]c(=O)n3nc(-c4ccccc4)nc3c2cc1OC`, 35.3 µM (inactive).
For `COc1cccc(C(=O)Nc2c(C(N)=O)oc3ccccc23)c1` the value was 33.6 µM (inactive); for `COc1ccc(C(=O)Nc2cccc(NC(=O)c3ccc(OC)c(OC)c3)n2)cc1OC`, 11.2 µM.
In the case of `COc1cc(-c2cnc3c(NC=O)cc(-c4cccnc4)cn23)cc(OC)c1OC`, the IC50 is 7.57 µM.
With `CC(=O)Nc1ccc(C(=O)N/N=C/c2ccccc2OC(=O)c2ccc(Cl)cc2)cc1`, the IC50 was > 79 µM (inactive).
For `CC(C)(C)NC(=O)COC(=O)c1c2c(nc3ccccc13)CCC2` the value was 23.7 µM (inactive); for `COc1cc(CN2C[C@@H](CO)O[C@@H](n3cnc4c(Nc5ccccc5)ncnc43)C2)cc(OC)c1OC`, > 79 µM (inactive).
For `CCOc1cc(-c2cc(-c3ccc(N)cc3)nc(N)c2C#N)ccc1O` the value was > 79 µM (inactive); for `CCn1c(O)c(/C=N/N=C/c2ccccc2)c2ccc(C3=NNC(=O)CC3)cc21`, 18.1 µM; for `COc1cc(-c2cc(C(=O)Nc3cccc(C(C)=O)c3)c3ccccc3n2)cc(OC)c1OC`, 9.9 µM.
For `COc1cccc(-c2cnc3c(NC(C)=O)cc(-c4cccc(NS(C)(=O)=O)c4)cn23)c1` the value was > 79 µM (inactive); for `O=S(=O)(c1ccccc1)N1CCN(c2nc(-c3cccnc3)nc3ccccc23)CC1`, 51.6 µM (inactive); for `CC1(c2ccccc2)NC(=O)N(CC(=O)Nc2cccc(/C=C/c3ccccn3)c2)C1=O` (stereo unspecified), > 79 µM (inactive).
On to `NC(=O)c1nsc(C(=O)N(c2ccccc2)C(C(=O)NC2CCCC2)c2ccc3ncccc3c2)c1N` (stereo unspecified), for which the IC50 was 13.2 µM.
As for `COc1ccc(C(C(=O)NC2CCCC2)N(C(=O)c2snc(C(N)=O)c2N)c2cccc(O)c2)cc1` (stereo unspecified), the IC50 is 40.9 µM (inactive).
`COc1cc(/C=C(\C#N)c2nc3ccc(C)cc3[nH]2)c([N+](=O)[O-])cc1OC`: the IC50 is > 79 µM (inactive).
Consider `CC(C)OCCCNC(=O)CCC(=O)NNc1nc2ccccc2c2nc(-c3ccccc3)nn12`, for which the IC50 was > 79 µM (inactive).
The result for `Cc1cc(C)c(C)c(S(=O)(=O)N2CCN(C(=O)c3cc(=O)[nH]c4ccccc34)CC2)c1C` reads 23.7 µM (inactive); that for `CC(C)(C)OC(=O)C[C@@H]1C/C=C\C[C@@H](CC(=O)N[C@@H](CO)Cc2ccccc2)C(=O)NC[C@@H](c2ccccc2)OC1=O`, > 79 µM (inactive); that for `COc1ccc(-c2cc(C(=O)Nc3ccccc3N3CCOCC3)c3ccccc3n2)cc1OC`, > 79 µM (inactive).

Values taken from PubChem BioAssay AID602217 (Sanford-Burnham Center for Chemical Genomics, 2012).
